# Source: patent US20250360137A1, “ENHANCEMENT OF THE EFFICACY OF SEROTONERGIC PSYCHEDELIC DRUGS IN THE TREATMENT OR PREVENTION OF CERTAIN NEUROPSYCHIATRIC DISORDERS THROUGH INHIBITION OF TYPE-9 PHOSPHODIESTERASES” (Freedom Biosciences, Inc., priority 2022, published 2025)
# Tested on: C57B6/J mice
# Experiment: Psilocybin induced head twitch response (HTR) in mice, automated system with implanted ear magnets
# Format: in vivo
# Experimental: Illustrated herein is a dose-dependent decrease in hallucinogenic response (head-twitch response, HTR) to psilocybin administration by adding a PDE9 inhibitor.
# In this experiment, it was determined whether the number of head twitches in 10 minutes in response to psilocybin administration in 7-10 week old C57B6/J mice (equal numbers of male and female) were reduced by PF-4447943, a prototypical PDE9 inhibitor. The experiment began with the mice receiving a 20-minute pretreatment with PF-4447943 or its associated vehicle (5% Cremophor, 5% dimethyl sulfoxide (DMSO), and 90% saline) followed by the test dose of psilocybin. Head twitch was assessed for 10 minutes in an automated system using implanted magnets in the mouse's ears. At least one week elapsed prior to reuse, and mice were used maximally twice. […] For instance, average HTR over 10 min in mice receiving 3 mg/kg psilocybin and no PF-4447943 was about 30, while average HTR over 10 min in mice receiving 3 mg/kg psilocybin plus 3 mg/kg PF-4447943 was about 20.
# In another experiment, a psilocybin dose-response curve was generated in the presence and absence of a fixed dose of pre-administered PF-4447943. FIG. 2 depicts the results of HTR in mice receiving administration of a fixed dose of PF-4447943 (3 mg/kg IP) and various doses of psilocybin (0, 0.3, 1, 3, 10 mg/kg IP), in comparison with administration of psilocybin plus the PF-4447943 vehicle alone as a control.
Compound,"average HTR over 10 min (mice receiving 3 mg/kg psilocybin and no PF-4447943 (vehicle pretreatment), FIG. 1)","HTR after psilocybin following pretreatment with PF-4447943 compared to pretreatment with the PF-4447943 vehicle (20-minute pretreatment, head twitch assessed for 10 minutes, FIG. 1)","average HTR over 10 min (mice receiving 3 mg/kg psilocybin plus 3 mg/kg PF-4447943 (20-minute pretreatment), FIG. 1)","reduction of HTR (pretreatment with 3 mg/kg PF-4447943 IP, across all doses of psilocybin (0, 0.3, 1, 3, 10 mg/kg IP) vs psilocybin plus vehicle, FIG. 2)"
"CN(C)CCc1c[nH]c2cccc(OP(=O)(O)O)c12 [psilocybin, [3-[2-(dimethylamino)ethyl]-1H-indol-4-yl]dihydrogen phosphate]",about 30,,,
"C[C@@H]1CN(Cc2ncccn2)C[C@H]1c1nc2c(cnn2C2CCOCC2)c(=O)[nH]1 [PF-4447943, 6-[(3S,4S)-4-methyl-1-(pyrimidin-2-ylmethyl)pyrrolidin-3-yl]-1-(tetrahydro-2H-pyran-4-yl)-1,5-dihydro-4H-pyrazolo[3,4-d]pyrimidin-4-one]",,reduced,about 20,about 40%
